In experiment [1] the target is T1, BRAF G466V (Homo sapiens, UniProt P15056, G466V).
T1 construct: expressed in transfected cells
The experiment can be described thus: Cellular assay of target protein degradation, T-Rex 293 cells stably transfected with HA-BRAF G466V (HA immunofluorescence, high content imaging). The class given is cell-based. An outline of the steps:
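Doxycycline-induced (0.75 ng/mL) cells treated 24 h at 37 °C with compound from 30 nM to 3 pM (0.1% DMSO). After fixation and permeabilisation, HA-tagged BRAF G466V immunostained and quantified by high-content imaging. DC50 and Dmax (percent of control) derived.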

Experiment [2] has as its target T2, BRAF V600E (Homo sapiens, UniProt P15056, V600E).
T2 construct: expressed in transfected cells
The experiment in a line: Cellular assay of target protein degradation, T-Rex 293 cells stably transfected with HA-BRAF_V600E (HA immunofluorescence, high content imaging). The format is cell-based. An outline of the steps: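 Doxycycline-induced (1 ng/mL) T-Rex 293 cells expressing HA-BRAF V600E treated 24 h at 37 °C with compound at 1 μM to 0.1 nM final in 0.1% DMSO. Remaining HA-tagged protein quantified by fixed-cell anti-HA immunofluorescence and high-content imaging; DC50 and Dmax (% of control) derived.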

Setting [3] is: half maximal degradation, T-Rex 293 HA-BRAF G466V; read-out: BRaf G466V DC50.
[4] abbreviates: maximum degradation observed, T-Rex 293 HA-BRAF G466V.
[5] abbreviates: half maximal degradation, T-Rex 293 HA-BRAF V600E; read-out: BRaf V600E DC50.
Where [6] appears, read: maximum degradation observed, T-Rex 293 HA-BRAF V600E.

Where two headings read alike, the source gives them in different places. A value given as a limit tells only on which side of the number the result lay.

T1 sequence (P15056 whole entry G466V): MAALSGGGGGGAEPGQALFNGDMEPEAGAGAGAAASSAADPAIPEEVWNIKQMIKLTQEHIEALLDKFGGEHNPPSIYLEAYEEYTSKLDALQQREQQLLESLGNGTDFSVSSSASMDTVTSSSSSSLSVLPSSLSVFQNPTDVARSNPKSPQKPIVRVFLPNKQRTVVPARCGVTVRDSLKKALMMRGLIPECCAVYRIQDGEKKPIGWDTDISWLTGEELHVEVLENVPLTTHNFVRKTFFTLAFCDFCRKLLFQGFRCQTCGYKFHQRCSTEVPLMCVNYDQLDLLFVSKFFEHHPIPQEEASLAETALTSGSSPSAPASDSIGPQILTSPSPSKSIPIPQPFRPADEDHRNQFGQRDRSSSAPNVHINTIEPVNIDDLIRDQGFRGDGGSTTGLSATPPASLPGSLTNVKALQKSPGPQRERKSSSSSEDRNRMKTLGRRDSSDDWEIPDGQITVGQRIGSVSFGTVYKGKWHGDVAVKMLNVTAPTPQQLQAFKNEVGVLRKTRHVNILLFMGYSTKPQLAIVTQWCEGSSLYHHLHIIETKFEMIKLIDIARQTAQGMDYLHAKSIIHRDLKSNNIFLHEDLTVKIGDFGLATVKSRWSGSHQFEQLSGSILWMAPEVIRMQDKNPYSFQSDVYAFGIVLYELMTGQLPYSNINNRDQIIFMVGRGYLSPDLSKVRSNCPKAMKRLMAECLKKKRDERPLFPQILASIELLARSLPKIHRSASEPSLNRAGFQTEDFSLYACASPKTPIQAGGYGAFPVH
T2 sequence (P15056 whole entry V600E): as the sequence (P15056 whole entry G466V) above, with V466G, V600E counted along it

The DC50 is the concentration at which degradation of the target reaches its halfway point. One may read the Dmax as the greatest extent of degradation seen. A lower Dmax goes with a partial loss of target. In the case of `O=C1CC[C@H](N2Cc3cc(N4C[C@H]5CN(CC6CCN(c7ccc(-c8cnc9[nH]cc(C(=O)c%10c(F)ccc(NS(=O)(=O)N%11CC[C@@H](F)C%11)c%10F)c9c8)cc7)CC6)C[C@H]5C4)ccc3C2=O)C(=O)N1` [Compound 57, (3R)-N-(3-{5-[4-(4-{[(3aR,6aS)-5-{2-[(3S)-2,6-dioxopiperidin-3-yl]-1-oxo-2,3-dihydro-1H-isoindol-5-yl}-octahydropyrrolo [3,4-c]pyrrol-2-yl]methyl}piperidin-1-yl)phenyl]-1H-pyrrolo[2,3-b]pyridine-3-carbonyl}-2,4-difluorophenyl)-3-fluoropyrrolidine-1-sulfonamide], the DC50 in experiment [1] (setting [3]) is less than 1 nM; in experiment [2] (setting [5]), less than 5 nM. Also, the Dmax in experiment [1] (setting [4]) was greater than 70%; in experiment [2] (setting [6]), 35 to 70%.

In the case of `O=C1CC[C@@H](N2Cc3cc(N4C[C@H]5CN(CC6CCN(c7ccc(-c8cnc9[nH]cc(C(=O)c%10c(F)ccc(NS(=O)(=O)N%11CC[C@@H](F)C%11)c%10F)c9c8)cc7)CC6)C[C@H]5C4)ccc3C2=O)C(=O)N1` [Compound 58, (3R)-N-(3-{5-[4-(4-{[(3aR,6aS)-5-{2-[(3R)-2,6-dioxopiperidin-3-yl]-1-oxo-2,3-dihydro-1H-isoindol-5-yl}-octahydropyrrolo [3,4-c]pyrrol-2-yl]methyl}piperidin-1-yl)phenyl]-1H-pyrrolo[2,3-b]pyridine-3-carbonyl}-2,4-difluorophenyl)-3-fluoropyrrolidine-1-sulfonamide], the 50% degradation concentration (DC50) in experiment [1] (setting [3]) was less than 1 nM; in experiment [2] (setting [5]), less than 5 nM. Also, the maximal degradation (Dmax) in experiment [1] (setting [4]) is 35 to 70%; in experiment [2] (setting [6]), less than 35%.

`COc1cc(N2CC3(CC(CN4CCN(c5ccc(-c6cnc7[nH]cc(C(=O)c8c(F)ccc(NS(=O)(=O)N9CC[C@@H](F)C9)c8F)c7c6)cc5)CC4)C3)C2)cc2c1C(=O)N(C1CCC(=O)NC1=O)C2` (stereo partly drawn) [Compound 59, (3R)-N-[3-(5-{4-[4-({2-[2-(2,6-dioxopiperidin-3-yl)-7-methoxy-1-oxo-2,3-dihydro-1H-isoindol-5-yl]-2-azaspiro[3.3]heptan-6-yl}methyl)piperazin-1-yl]phenyl}-1H-pyrrolo[2,3-b]pyridine-3-carbonyl)-2,4-difluorophenyl]-3-fluoropyrrolidine-1-sulfonamide]: the DC50 fell in the range of 1 to 10 nM in experiment [1] (setting [3]) and 5 to 50 nM in experiment [2] (setting [5]). In addition, the Dmax in experiment [1] (setting [4]) was greater than 70%; in experiment [2] (setting [6]) it was 35 to 70%.

As for `CC(C)(C1CCN(c2ccc(-c3cnc4[nH]cc(C(=O)c5c(F)ccc(NS(=O)(=O)N6CC[C@@H](F)C6)c5F)c4c3)cc2)CC1)N1CC2(CN(c3ccc4c(c3)CN(C3CCC(=O)NC3=O)C4=O)C2)C1` (stereo partly drawn) [Compound 60, (3R)-N-[3-(5-{4-[4-(2-{6-[2-(2,6-dioxopiperidin-3-yl)-1-oxo-2,3-dihydro-1H-isoindol-5-yl]-2,6-diazaspiro[3.3]heptan-2-yl}propan-2-yl)piperidin-1-yl]phenyl}-1H-pyrrolo[2,3-b]pyridine-3-carbonyl)-2,4-difluorophenyl]-3-fluoropyrrolidine-1-sulfonamide], the Dmax in experiment [1] (setting [4]) was greater than 70%; in experiment [2] (setting [6]) it was 35 to 70%. Moreover, the DC50 in experiment [1] (read-out: BRaf G466V DC50; half maximal degradation, T-Rex 293 HA-BRAF G466V) is 1 to 10 nM; in experiment [2] (read-out: BRaf V600E DC50; half maximal degradation, T-Rex 293 HA-BRAF V600E) it was 5 to 50 nM.

Turning to `O=C1CCC(N2Cc3cc(C(O)CCN4CC5(C4)CN(c4ccc(-c6cnc7[nH]cc(C(=O)c8c(F)ccc(NS(=O)(=O)N9CC[C@@H](F)C9)c8F)c7c6)cc4)C5)ccc3C2=O)C(=O)N1` (stereo partly drawn) [Compound 61, (3R)-N-(3-{5-[4-(6-{3-[2-(2,6-dioxopiperidin-3-yl)-1-oxo-2,3-dihydro-1H-isoindol-5-yl]-3-hydroxypropyl}-2,6-diazaspiro[3.3]heptan-2-yl)phenyl]-1H-pyrrolo[2,3-b]pyridine-3-carbonyl}-2,4-difluorophenyl)-3-fluoropyrrolidine-1-sulfonamide], the DC50 was in the range of 1 to 10 nM in experiment [1] (setting [3]) and 5 to 50 nM in experiment [2] (setting [5]). Besides, the greatest degradation seen (Dmax) in experiment [1] (setting [4]) and in experiment [2] (setting [6]) was 35 to 70% in each case.

Consider `O=C1CC[C@H](N2Cc3cc(CCCCN4CC5(C4)CN(c4ccc(-c6cnc7[nH]cc(C(=O)c8c(F)ccc(NS(=O)(=O)N9CC[C@@H](F)C9)c8F)c7c6)cc4)C5)ccc3C2=O)C(=O)N1` [Compound 62, (3R)-N-[3-(5-{4-[6-(4-{2-[(3S)-2,6-dioxopiperidin-3-yl]-1-oxo-2,3-dihydro-1H-isoindol-5-yl}butyl)-2,6-diazaspiro[3.3]heptan-2-yl]phenyl}-1H-pyrrolo[2,3-b]pyridine-3-carbonyl)-2,4-difluorophenyl]-3-fluoropyrrolidine-1-sulfonamide], for which the DC50 in experiment [1] (setting [3]) was less than 1 nM; in experiment [2] (setting [5]) it was less than 5 nM. Moreover, the Dmax in experiment [1] (setting [4]) and in experiment [2] (setting [6]) was 35 to 70% in each case.

For the compound `O=C1CC[C@@H](N2Cc3cc(CCCCN4CC5(C4)CN(c4ccc(-c6cnc7[nH]cc(C(=O)c8c(F)ccc(NS(=O)(=O)N9CC[C@@H](F)C9)c8F)c7c6)cc4)C5)ccc3C2=O)C(=O)N1` [Compound 63, (3R)-N-[3-(5-{4-[6-(4-{2-[(3R)-2,6-dioxopiperidin-3-yl]-1-oxo-2,3-dihydro-1H-isoindol-5-yl}butyl)-2,6-diazaspiro[3.3]heptan-2-yl]phenyl}-1H-pyrrolo[2,3-b]pyridine-3-carbonyl)-2,4-difluorophenyl]-3-fluoropyrrolidine-1-sulfonamide], the DC50 in experiment [1] (setting [3]) was 1 to 10 nM; in experiment [2] (setting [5]), greater than 500 nM. In experiment [1] (setting [4]), this compound displayed a Dmax greater than 70%.

For `O=C1CCC(N2Cc3cc(CCCCCN4CCN(c5ccc(-c6cnc7[nH]cc(C(=O)c8c(F)ccc(NS(=O)(=O)N9CC[C@@H](F)C9)c8F)c7c6)cc5)CC4)ccc3C2=O)C(=O)N1` (stereo partly drawn) [Compound 64, (3R)-N-(3-{5-[4-(4-{5-[2-(2,6-dioxopiperidin-3-yl)-1-oxo-2,3-dihydro-1H-isoindol-5-yl]pentyl}piperazin-1-yl)phenyl]-1H-pyrrolo[2,3-b]pyridine-3-carbonyl}-2,4-difluorophenyl)-3-fluoropyrrolidine-1-sulfonamide], the DC50 in experiment [1] (setting [3]) is less than 1 nM; in experiment [2] (setting [5]) it was 5 to 50 nM. Besides, the Dmax in experiment [1] (setting [4]) and in experiment [2] (setting [6]) was 35 to 70% throughout.

On to `O=C1CCC(N2Cc3cc(CCCCCN4CCC(c5ccc(-c6cnc7[nH]cc(C(=O)c8c(F)ccc(NS(=O)(=O)N9CC[C@@H](F)C9)c8F)c7c6)cc5)CC4)ccc3C2=O)C(=O)N1` (stereo partly drawn) [Compound 65, (3R)-N-(3-{5-[4-(1-{5-[2-(2,6-dioxopiperidin-3-yl)-1-oxo-2,3-dihydro-1H-isoindol-5-yl]pentyl}piperidin-4-yl)phenyl]-1H-pyrrolo[2,3-b]pyridine-3-carbonyl}-2,4-difluorophenyl)-3-fluoropyrrolidine-1-sulfonamide], for which the DC50 in experiment [1] (setting [3]) is less than 1 nM; in experiment [2] (setting [5]), 5 to 50 nM. The maximal degradation (Dmax) in experiment [1] (setting [4]) and in experiment [2] (setting [6]) was 35 to 70% throughout.

For `O=C1CCC(N2Cc3cc(N4CCC(N5CCCC56CN(c5ccc(-c7cnc8[nH]cc(C(=O)c9c(F)ccc(NS(=O)(=O)N%10CC[C@@H](F)C%10)c9F)c8c7)cc5)C6)CC4)ccc3C2=O)C(=O)N1` (stereo partly drawn) [Compound 66, (3R)-N-(3-{5-[4-(5-{1-[2-(2,6-dioxopiperidin-3-yl)-1-oxo-2,3-dihydro-1H-isoindol-5-yl]piperidin-4-yl}-2,5-diazaspiro[3.4]octan-2-yl)phenyl]-1H-pyrrolo[2,3-b]pyridine-3-carbonyl}-2,4-difluorophenyl)-3-fluoropyrrolidine-1-sulfonamide], the DC50 in experiment [1] (setting [3]) was 10 to 30 nM; in experiment [2] (setting [5]) it was greater than 500 nM. The same compound displayed a Dmax in experiment [1] (setting [4]) greater than 70%.

On to `O=C1CC[C@H](N2Cc3cc([C@H](O)CCN4CCC(c5ccc(-c6cnc7[nH]cc(C(=O)c8c(F)ccc(NS(=O)(=O)N9CC[C@@H](F)C9)c8F)c7c6)cc5)CC4)ccc3C2=O)C(=O)N1` [Compound 67, (3R)—N-[3-[5-(4-[1-[(3R)-3-[2-[(3S)-2,6-dioxopiperidin-3-yl]-1-oxo-3H-isoindol-5-yl]-3-hydroxypropyl]piperidin-4-yl]phenyl)-1H-pyrrolo[2,3-b]pyridine-3-carbonyl]-2,4-difluorophenyl]-3-fluoropyrrolidine-1-sulfonamide], for which the DC50 in experiment [1] (setting [3]) was 1 to 10 nM; in experiment [2] (setting [5]) it was 5 to 50 nM. For the same compound, the Dmax in experiment [1] (setting [4]) is greater than 70%; in experiment [2] (setting [6]), 35 to 70%.

Consider `O=C1CC[C@@H](N2Cc3cc([C@H](O)CCN4CCC(c5ccc(-c6cnc7[nH]cc(C(=O)c8c(F)ccc(NS(=O)(=O)N9CC[C@@H](F)C9)c8F)c7c6)cc5)CC4)ccc3C2=O)C(=O)N1` [Compound 68, (3R)—N-[3-[5-(4-[1-[(3R)-3-[2-[(3R)-2,6-dioxopiperidin-3-yl]-1-oxo-3H-isoindol-5-yl]-3-hydroxypropyl]piperidin-4-yl]phenyl)-1H-pyrrolo[2,3-b]pyridine-3-carbonyl]-2,4-difluorophenyl]-3-fluoropyrrolidine-1-sulfonamide], for which the DC50 in experiment [1] (setting [3]) is 1 to 10 nM; in experiment [2] (setting [5]) it was greater than 500 nM. Besides, the Dmax in experiment [1] (setting [4]) is greater than 70%.

For the compound `O=C1CCC(N2Cc3cc(C4CCN(CCOc5ccc(-c6cnc7[nH]cc(C(=O)c8c(F)ccc(NS(=O)(=O)N9CC[C@@H](F)C9)c8F)c7c6)cc5)CC4)ccc3C2=O)C(=O)N1` (stereo partly drawn) [Compound 69, (3R)-N-(3-{5-[4-(2-{4-[2-(2,6-dioxopiperidin-3-yl)-1-oxo-2,3-dihydro-1H-isoindol-5-yl]piperidin-1-yl}ethoxy)phenyl]-1H-pyrrolo[2,3-b]pyridine-3-carbonyl}-2,4-difluorophenyl)-3-fluoropyrrolidine-1-sulfonamide], the DC50 in experiment [1] (setting [3]) lay within 1 to 10 nM; in experiment [2] (setting [5]), 5 to 50 nM. Moreover, the Dmax in experiment [1] (setting [4]) is greater than 70%; in experiment [2] (setting [6]), 35 to 70%.

(Values after patent US12180193B2, “Accelerating fibrosarcoma protein degrading compounds and associated methods of use” (Arvinas Operations, Inc., priority 2020, dated 2024).)
